Measurements: PubChem BioAssay (NCI)
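These data come from cells grown in 96-well plates and exposed to compound for 48 hours at five concentrations. TGI: total growth inhibition.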

What was measured:
Test in all cases: inhibition of tumour cell growth, NCI panel, 48 h
HCT-116 colon = test system: HCT-116 colon
HCT-15 colon = test system: HCT-15 colon
HT29 colon = test system: HT29 colon
K-562 leukemia = test system: K-562 leukemia
NCI-H522 lung = test system: NCI-H522 lung
SF-268 CNS = test system: SF-268 CNS
SNB-78 CNS = test system: SNB-78 CNS
UACC-62 melanoma = test system: UACC-62 melanoma
COLO 205 colon = test system: COLO 205 colon
OVCAR-4 ovarian = test system: OVCAR-4 ovarian

Structure (SMILES)	TGI (HCT-116 colon)	TGI (HCT-15 colon)	TGI (HT29 colon)	TGI (K-562 leukemia)	TGI (NCI-H522 lung)	TGI (SF-268 CNS)	TGI (SNB-78 CNS)	TGI (UACC-62 melanoma)	TGI (COLO 205 colon)	TGI (OVCAR-4 ovarian)
Cc1c(N(Cc2ccccc2)Cc2ccccc2)nc(S(C)(=O)=O)nc1S(C)(=O)=O	3.02 µM	6.4 µM	3.67 µM	4.83 µM	3.14 µM	3.74 µM	4.81 µM	3.16 µM		
CCCCCCCCCCCC1=C(O)C(=O)C=C(O)C1=O	30.1 µM	49.3 µM	50.2 µM	75.9 µM	66.5 µM	18 µM	149 µM	10.5 µM	27.9 µM	33.2 µM
NS(=O)(=O)C1CCCCC1C(=O)NNC(=O)C(=O)Nc1nc(=S)[nH][nH]1 (configuration not stated)	> 100 µM	> 100 µM	> 100 µM	> 100 µM	> 100 µM	> 100 µM	> 100 µM	> 100 µM	> 100 µM	> 100 µM
COc1ccc(Sc2ccccc2[N+](=O)[O-])cc1	> 100 µM	> 100 µM	59.9 µM	> 100 µM		> 100 µM	98.4 µM	> 100 µM	29.7 µM	> 100 µM
Cc1ccc(C)c(C(=O)CC2OC(O)C(Cl)C2Cl)c1 (configuration not stated)	> 100 µM	> 100 µM	> 100 µM	> 100 µM	29.4 µM	> 100 µM	> 100 µM	> 100 µM	> 100 µM	> 100 µM
Nc1cc(O)c2cc(N=Nc3ccc(N=Nc4ccc(N=Nc5ccc6cc(S(=O)(=O)O)cc(S(=O)(=O)O)c6c5)c5ccccc45)c4cc(S(=O)(=O)O)ccc34)c(S(=O)(=O)O)cc2c1	> 100 µM	> 100 µM	> 100 µM	> 31.6 µM	> 100 µM	> 100 µM	> 100 µM	> 100 µM	> 100 µM	> 100 µM
